This note sets out measurements from patent publication US20230065799A1, “METHOD FOR ATTRIBUTING OLFACTORY TONALITIES TO OLFACTORY RECEPTOR ACTIVATION AND METHODS FOR IDENTIFYING COMPOUNDS HAVING THE ATTRIBUTED TONALITIES” (FIRMENICH SA, priority 2019, published 2023).

The target in one assay is T1, OR5AN1 (Homo sapiens, UniProt Q8NGI8).
T1 construct: Lucy (cleavable signal peptide) (N); FLAG (N); Rho (first 20 aa of bovine rhodopsin) (N); expressed in transfected cells
T1 sequence (Q8NGI8 1-311): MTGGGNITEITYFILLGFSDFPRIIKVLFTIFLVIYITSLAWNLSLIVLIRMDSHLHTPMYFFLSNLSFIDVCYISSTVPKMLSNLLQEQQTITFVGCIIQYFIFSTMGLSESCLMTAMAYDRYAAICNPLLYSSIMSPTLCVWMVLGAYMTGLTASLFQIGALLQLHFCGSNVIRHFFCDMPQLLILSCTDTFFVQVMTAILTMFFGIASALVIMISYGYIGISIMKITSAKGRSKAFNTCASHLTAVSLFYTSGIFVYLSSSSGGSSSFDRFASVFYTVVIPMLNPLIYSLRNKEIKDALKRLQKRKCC
The experiment in a line: OR5AN1 cell-based cAMP HTRF assay. To be noted: for Emax: read-out: OR5AN1 % Efficacy.

For the next assay, the target named is T2, OR1N2 (Homo sapiens, UniProt Q8NGR9, T287M/V230G/W23R).
T2 construct: Lucy (cleavable signal peptide) (N); FLAG (N); Rho (first 20 aa of bovine rhodopsin) (N); expressed in transfected cells
T2 sequence (Q8NGR9 1-316 W23R/V230G/T287M): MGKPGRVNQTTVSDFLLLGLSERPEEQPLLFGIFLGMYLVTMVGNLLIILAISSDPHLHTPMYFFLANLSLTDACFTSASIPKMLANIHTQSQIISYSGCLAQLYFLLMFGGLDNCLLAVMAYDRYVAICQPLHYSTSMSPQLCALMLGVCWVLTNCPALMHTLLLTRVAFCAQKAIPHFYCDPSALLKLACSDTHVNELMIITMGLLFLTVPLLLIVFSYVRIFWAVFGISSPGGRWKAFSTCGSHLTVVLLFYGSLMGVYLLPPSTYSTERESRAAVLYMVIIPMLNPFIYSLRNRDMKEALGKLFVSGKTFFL
The experiment in a line: OR1N2 cell-based cAMP HTRF assay. As to conditions: read-out: OR1N2 % Efficacy. For orientation: In TR-FRET formats the signal depends on donor and acceptor labels being close together.

For another assay, the target named is T3, OR5A1 (Homo sapiens, UniProt Q8NGJ0).
T3 construct: Lucy (cleavable signal peptide) (N); FLAG (N); Rho (first 20 aa of bovine rhodopsin) (N); expressed in transfected cells
T3 sequence (Q8NGJ0 1-315): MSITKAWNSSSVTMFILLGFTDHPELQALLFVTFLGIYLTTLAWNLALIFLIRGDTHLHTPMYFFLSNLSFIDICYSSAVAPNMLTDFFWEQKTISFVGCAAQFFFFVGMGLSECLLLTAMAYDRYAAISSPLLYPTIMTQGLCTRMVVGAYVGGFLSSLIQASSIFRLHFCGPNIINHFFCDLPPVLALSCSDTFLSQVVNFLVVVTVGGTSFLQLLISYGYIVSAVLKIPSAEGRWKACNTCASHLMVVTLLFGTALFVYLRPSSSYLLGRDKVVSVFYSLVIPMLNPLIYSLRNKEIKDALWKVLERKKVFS
The experiment in a line: OR5A1 cell-based cAMP HTRF assay. To be noted: for Emax: dose-response, 100% = full agonist, read-out: OR5A1 % Efficacy.

The next assay addresses T4, OR7A17 (Homo sapiens, UniProt O14581).
T4 construct: Lucy (cleavable signal peptide) (N); FLAG (N); Rho (first 20 aa of bovine rhodopsin) (N); expressed in transfected cells
T4 sequence (O14581 1-309): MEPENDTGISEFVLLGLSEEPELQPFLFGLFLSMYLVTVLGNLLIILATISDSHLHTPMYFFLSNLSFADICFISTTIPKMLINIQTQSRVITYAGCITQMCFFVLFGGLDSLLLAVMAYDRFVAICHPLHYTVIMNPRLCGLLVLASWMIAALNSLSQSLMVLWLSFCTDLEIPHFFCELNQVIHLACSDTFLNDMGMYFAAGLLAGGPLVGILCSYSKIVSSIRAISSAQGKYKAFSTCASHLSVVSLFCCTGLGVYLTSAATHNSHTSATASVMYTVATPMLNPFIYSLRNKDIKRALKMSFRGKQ
Kind of assay: OR7A17 cell-based cAMP HTRF assay. To be noted: FIG. 1.

The target in another assay is T5, OR8D1 (Homo sapiens, UniProt Q8WZ84).
T5 construct: Lucy (cleavable signal peptide) (N); FLAG (N); Rho (first 20 aa of bovine rhodopsin) (N); expressed in transfected cells
T5 sequence (Q8WZ84 1-308): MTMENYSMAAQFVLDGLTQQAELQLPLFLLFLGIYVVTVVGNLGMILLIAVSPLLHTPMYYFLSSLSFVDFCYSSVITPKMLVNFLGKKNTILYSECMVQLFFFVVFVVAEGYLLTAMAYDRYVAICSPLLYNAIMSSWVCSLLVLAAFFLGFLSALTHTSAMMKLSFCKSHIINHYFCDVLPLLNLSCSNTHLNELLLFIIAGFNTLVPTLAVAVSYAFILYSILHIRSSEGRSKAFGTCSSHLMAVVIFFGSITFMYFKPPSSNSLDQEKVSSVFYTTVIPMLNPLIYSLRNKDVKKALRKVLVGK
The experiment in a line: OR8D1 cell-based cAMP HTRF assay. To be noted: dose-response, 100% = full agonist; for Emax: read-out: OR8D1 % Efficacy.

The next assay deals with T6, OR1C1 (Homo sapiens, UniProt Q15619).
T6 construct: Lucy (cleavable signal peptide) (N); FLAG (N); Rho (first 20 aa of bovine rhodopsin) (N); expressed in transfected cells
T6 sequence (Q15619 1-314): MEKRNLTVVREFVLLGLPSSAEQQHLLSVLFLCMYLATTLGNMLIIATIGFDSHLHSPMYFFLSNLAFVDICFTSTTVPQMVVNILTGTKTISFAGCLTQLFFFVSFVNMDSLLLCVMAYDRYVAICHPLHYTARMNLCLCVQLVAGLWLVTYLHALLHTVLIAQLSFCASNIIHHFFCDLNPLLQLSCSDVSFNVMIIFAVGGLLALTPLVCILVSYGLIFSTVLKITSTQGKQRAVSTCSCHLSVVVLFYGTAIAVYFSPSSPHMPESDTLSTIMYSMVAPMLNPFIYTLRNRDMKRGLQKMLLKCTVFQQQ
Kind of assay: OR1C1 cell-based cAMP HTRF assay. To be noted: dose-response; 100% = full agonist; read-out: OR1C1 % Efficacy.

The next assay addresses T7, OR10J5 (Homo sapiens, UniProt Q8NHC4).
T7 construct: Lucy (cleavable signal peptide) (N); FLAG (N); Rho (first 20 aa of bovine rhodopsin) (N); expressed in transfected cells
T7 sequence (Q8NHC4 1-309): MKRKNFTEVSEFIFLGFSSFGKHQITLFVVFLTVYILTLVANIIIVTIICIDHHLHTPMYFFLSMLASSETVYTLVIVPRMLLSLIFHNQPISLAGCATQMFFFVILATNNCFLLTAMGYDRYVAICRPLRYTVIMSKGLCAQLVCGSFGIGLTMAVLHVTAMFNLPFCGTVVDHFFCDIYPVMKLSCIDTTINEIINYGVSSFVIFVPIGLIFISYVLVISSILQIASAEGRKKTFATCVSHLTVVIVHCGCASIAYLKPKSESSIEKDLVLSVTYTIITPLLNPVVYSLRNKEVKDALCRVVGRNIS
Kind of assay: OR10J5 cell-based cAMP HTRF assay. To be noted: for Emax: read-out: OR10J5 % Efficacy.

Another assay addresses T8, OR5B12 (Homo sapiens, UniProt Q96R08).
T8 construct: Lucy (cleavable signal peptide) (N); FLAG (N); Rho (first 20 aa of bovine rhodopsin) (N); expressed in transfected cells
T8 sequence (Q96R08 1-314): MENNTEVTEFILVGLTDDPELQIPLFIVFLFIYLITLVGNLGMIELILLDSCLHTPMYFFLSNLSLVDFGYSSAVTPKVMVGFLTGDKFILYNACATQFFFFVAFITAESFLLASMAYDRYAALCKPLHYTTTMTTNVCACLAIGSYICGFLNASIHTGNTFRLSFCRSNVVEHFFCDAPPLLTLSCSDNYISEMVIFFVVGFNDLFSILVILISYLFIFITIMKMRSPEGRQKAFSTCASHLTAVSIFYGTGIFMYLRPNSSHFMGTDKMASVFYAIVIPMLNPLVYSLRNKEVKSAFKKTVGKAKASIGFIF
The experiment in a line: OR5B12 cell-based cAMP HTRF assay. To be noted: dose-response; 100% = full agonist.

[1] abbreviates: dose-response, 100% = full agonist.

Like-named read-outs stand apart in the source and are kept apart here.

Regarding “3-methylcyclopentadec-4-en-1-one; 3-methylcyclopentadec-5-en-1-one [Muscenone delta]”, the “OR5AN1 % Efficacy” value on OR5AN1 (setting [1]) is 86%.

As for `O=C1CCCCCCCC=CCCCCCCO1` [Ambrettolide, 1-oxacycloheptadec-10-en-2-one], the Emax at OR1N2 (setting [1]) came out at 100%.

For `O=C1CCCCCCCCCCCC(=O)OCCO1` [Astrotone, 1,4-dioxacycloheptadecane-5,17-dione], at OR1N2 (setting [1]), the Emax was found to be 59%.

Regarding `CC(=O)C=CC1=C(C)CCCC1(C)C` [Beta-ionone, 4-(2,6,6-trimethylcyclohexen-1-yl)but-3-en-2-one], the “activation of OR5A1 (violet tonality)” value on OR5A1 (FIG. 1) is on record as “activation”. Also, the Emax at OR5A1 was 100%. Besides, at OR7A17, the “activation of OR7A17 (blonde woody tonality)” value is given as “activation”.

Take `CCCC1CC(=O)C=C(C)C1` (centres unmarked) [Celery ketone, 3-methyl-5-propylcyclohex-2-en-1-one]: on OR8D1, the Emax came to 76%.

Turning to `O=C1CCCCCCCC=CCCCCCCC1` [Civetone, cycloheptadec-9-en-1-one], the Emax at OR1N2 came to 94%.

Consider `CC1=C(O)C(=O)CC1` [Cyclotone, 2-hydroxy-3-methylcyclopent-2-en-1-one], for which, on OR8D1, the Emax turned out to be 97%.

On to `C=CC(C)(O)CCCC(C)C` (centres unmarked) [Dihydrolinalool, 3,7-dimethyloct-1-en-3-ol], for which the Emax at OR1C1 stood at 95%.

For the compound `C=CC(C)(O)CCC=C(C)CC` (centres unmarked) [Ethyl Linalool, 3,7-dimethylnona-1,6-dien-3-ol], on OR1C1, the Emax came to 99%.

Turning to `O=C1CCC=CCCCCCCCCCC1` [Exaltenone, cyclopentadec-4-en-1-one], at OR5AN1 (setting [1]), the Emax came to 86%.

Consider `CC(C)CC1CC(C)(O)CCO1` (centres unmarked) [Florol, 4-methyl-2-(2-methylpropyl)oxan-4-ol], for which, on OR10J5 (setting [1]), the Emax came out at 40%.

For the compound `CCCCC[C@@H]1C(=O)CC[C@@H]1CC(=O)OC` [Hedione, methyl 2-[(1~{R},2~{S})-3-oxo-2-pentylcyclopentyl]acetate], the “OR5B12 % Efficacy” value at OR5B12 is on record as 86%.

As for `CC(=O)C=CC1=C(C)CCC(C)C1(C)C` (stereo not drawn) [Irone beta, 4-(2,5,6,6-tetramethylcyclohexen-1-yl)but-3-en-2-one], the Emax at OR5A1 came to 91%.

As to `Cc1ccc2c(c1)CC(C)(CO)C2` (centres unmarked) [Lilyflore, (2,5-dimethyl-1,3-dihydroinden-2-yl)methanol], the Emax on OR10J5 (setting [1]) worked out at 58%.

With `C=CC(C)(O)CCC=C(C)C` (centres unmarked) [Linalool, 3,7-dimethylocta-1,6-dien-3-ol], on OR1C1, the Emax came out at 100%.

On to `CC(C)(O)CCCC1=CCC(C=O)CC1` (centres unmarked) [Lyral, 3-(4-hydroxy-4-methylpentyl)cyclohex-3-ene-1-carbaldehyde; 4-(4-hydroxy-4-methylpentyl)cyclohex-3-ene-1-carbaldehyde], for which the Emax on OR10J5 was 100%.

Turning to `CC(=CCCC=O)CCCC(C)(C)O` [Mahonial, 9-hydroxy-5,9-dimethyldec-4-enal], the Emax at OR10J5 (setting [1]) turned out to be 96%.

As to `CCC1OC(=O)C(O)=C1C` (centres unmarked) [Maple Furanone, 2-ethyl-4-hydroxy-3-methyl-2~{H}-furan-5-one], the “OR8D1 % Efficacy” value at OR8D1 is given as 100%.

Take `CCC(=O)C=CC1=C(C)CCCC1(C)C` [Methylionone beta, 1-(2,6,6-trimethylcyclohexen-1-yl)pent-1-en-3-one]: the Emax at OR5A1 came out at 82%.

Regarding `C[C@@H]1CCCCCCCCCCCCC(=O)C1` [Muscone, (R)-3-methylcyclopentadecanone], at OR5AN1 (setting [1]), the Emax is 75%.

As for `CC(=O)c1c(C)c([N+](=O)[O-])c(C(C)(C)C)c([N+](=O)[O-])c1C` [Musk ketone, 1-(4-~{tert}-butyl-2,6-dimethyl-3,5-dinitrophenyl)ethanone], the Emax on OR5AN1 (setting [1]) came out at 100%.

For the compound `Cc1c([N+](=O)[O-])c(C)c([N+](=O)[O-])c(C(C)(C)C)c1[N+](=O)[O-]` [Musk xylol, 1-~{tert}-butyl-3,5-dimethyl-2,4,6-trinitrobenzene], on OR5AN1, the “OR5AN1 % Efficacy” value is 97%.

Regarding `CCC=C1OC(=O)c2ccccc21` [Propylidene phthalide, 3-propylidene-2-benzofuran-1-one], the Emax on OR8D1 came to 80%.

Take `CC1=C(O)C(=O)OC1C` (centres unmarked) [Sotolone, 4-hydroxy-2,3-dimethyl-2~{H}-furan-5-one]: on OR8D1, the “OR8D1 % Efficacy” value was 100%.

Regarding `CCC(C)(O)CCCC(C)C` (centres unmarked) [Tetralinol, 3,7-dimethyloctan-3-ol], the Emax on OR1C1 was determined as 79%.

For the compound “methyl 2-[(1~{S},2~{S})-3-oxo-2-pentylcyclopentyl]acetate; methyl 2-[(1~{R},2~{S})-3-oxo-2-pentylcy clopentyl]acetate [Jasmodione]”, the “OR5B12 % Efficacy” value on OR5B12 is given as 98%.

“methyl 2-[[3-(4-hydroxy-4-methylpentyl)cyclohex-3-en-1-ylidene]methylamino]benzoate; methyl 2-[[4-(4-hydroxy-4-methylpentyl)cyclohex-3 -en-1-ylidene]methylamino]benzoate [Lyronol 50 dipg]”: on OR10J5 (setting [1]), the “OR10J5 % Efficacy” value was determined as 100%.
